Assay in all cases: inhibition of tumour cell growth, NCI panel, 48 h
Assay [1] has as its system 786-0 renal.
Assay [2] relates to A498 renal.
Assay [3] concerns COLO 205 colon.
Assay [4] deals with HL-60(TB) leukemia.
Assay [5] relates to IGROV1 ovarian.
For assay [6], the system named is NCI-H460 lung.
Assay [7] relates to OVCAR-4 ovarian.
Assay [8] has as its system OVCAR-8 ovarian.
In assay [9] the test system is SK-OV-3 ovarian.
The test system of assay [10] is U251 CNS.
For assay [11], the system named is PC-3 prostate.

Where “and” joins values, the source holds several entries; their conditions need not be identical. Identical values can stand only once.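 Compound exposure: 48 hours, 5 concentrations, 96-well plates. Here, GI50 denotes the concentration required for 50% inhibition of growth. TGI is the concentration that stops growth completely.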 A value given as a limit tells only on which side of the number the result lay.

For the molecule `CCc1ccccc1NC(=O)/C(N=O)=C(/C)O`, the TGI in assay [1], in assay [2], in assay [3], in assay [4], in assay [5] and in assay [6] was over 100 µM each time. Moreover, the TGI in assay [7], in [8], in assay [9] and in [10] was over 100 µM each time.

Consider `CCOc1ccc(N/C(=C(/C(Cl)=C(/Cl)NC(C)(C)C)[N+](=O)[O-])n2nnc3ccccc32)cc1`, for which the TGI was 36.7 µM in [1]; over 100 µM in assay [2]; 36.1 µM in assay [3]; over 100 µM in assay [6]; over 100 µM in assay [7]; 32.3 µM in assay [8]. In addition, the figures for the TGI in [11], in assay [9] and in [10] were 83.5 µM, over 100 µM and 35.1 µM, respectively.

As to `COc1cccc(NC(=O)CC(=O)N2N=C(n3ccc4ccccc43)CC2c2ccccc2)c1` (centres undefined), the TGI in assay [1], in assay [2], in assay [3], in assay [4], in assay [5] and in assay [6] was over 100 µM throughout. Moreover, the TGI in assay [7], in assay [8], in assay [9] and in assay [10] was over 100 µM in each case.

As to `N#CNC(=NCCc1c[nH]c2ccccc12)Oc1ccccc1`, the TGI in assay [1], in assay [3], in assay [4], in [5], in assay [6] and in assay [7] was over 100 µM each time. Also, the TGI in assay [8], in [9] and in assay [10] was over 100 µM each time.

In the case of `NC(=O)NC12CC3CC(CC(F)(C3)C1)C2`, the TGI in assay [1], in [2], in assay [3], in assay [4], in assay [5] and in assay [6] was over 100 µM in each case. The TGI in assay [8], in assay [9] and in [10] was over 100 µM throughout.

As for `O=C1c2ccccc2N2Oc3ccccc3C12c1ccccc1` (centres undefined), the TGI in assay [1], in [2], in [3], in assay [4], in assay [5] and in assay [7] was over 100 µM in each case. For the same molecule, the TGI in [8], in [9] and in assay [10] was over 100 µM each time.

As for `COc1cc(C2c3cc4c(cc3[C@@H](NCCN3CCOCC3)C3COC(=O)[C@H]23)OCO4)cc(OC)c1O` (some centres undefined), the TGI was 5.11 µM and 7.93 µM in assay [1]; 19.4 µM and > 17.5 µM in [3]; 22.4 µM and > 17.5 µM in [5]; 1.26 µM and 2.4 µM in [6]; 39.3 µM and > 17.5 µM in assay [7]; 11.9 µM in [8]. Moreover, the TGI in assay [9] was 5.89 µM and 11.3 µM; in assay [10], 5.46 µM and 5.53 µM. The GI50 is 8.01 µM and 1.95 µM in assay [3]; 0.051 µM and 0.174 µM in assay [6]; 1.49 µM and 3.36 µM in assay [9].

In the case of `CC[C@@]1(O)C(=O)OCc2c1cc1n(c2=O)Cc2c-1nc1ccccc1c2/C=N/NC(=O)c1ccc(N)cc1`, the TGI is 5.03 µM in assay [1]; 6.18 µM in assay [2]; over 100 µM in assay [3]; 15.2 µM in [6]; over 100 µM in assay [7]; over 100 µM in assay [8]. Moreover, the TGI was over 100 µM in [11], over 100 µM in [9] and 7.63 µM in [10].

For `CCc1cccc(C)c1NC(=O)C1=C(C)NC(C)=C(C(=O)Nc2c(C)cccc2CC)C1c1ccc2c(c1)OCO2`, the TGI is 33.2 µM in assay [1]; 34.6 µM in [2]; 38.6 µM in assay [3]; 57.1 µM in [4]; 78.6 µM in assay [5]; 45.5 µM in assay [6]. Also, the TGI is 66.1 µM in assay [7], over 100 µM in assay [8], 92.5 µM in [9] and 32.1 µM in assay [10].

As for `CC(Oc1ccc(OCC2CCCCC2)cc1)C(=O)NCc1ccco1` (centres undefined), the TGI in assay [1] is over 100 µM; in assay [2], 86.7 µM; in assay [4] it was over 100 µM; in [5], over 100 µM; in assay [6] it was over 100 µM; in assay [7] it was over 100 µM. Further, the TGI in assay [8], in assay [9] and in [10] was over 100 µM throughout.

In the case of `CCOc1ccc(NC(=O)C(=O)C(C(=O)c2ccc3ccccc3c2)C2OC(=O)c3ccccc32)cc1` (centres undefined), the TGI in assay [1] was 40.5 µM; in assay [2], 45.8 µM; in [3], 41.7 µM; in assay [5] it was 52.5 µM; in [6], over 100 µM; in assay [7], 44.5 µM. Further, the TGI in assay [8] was over 100 µM; in assay [9], over 100 µM; in assay [10], 24.4 µM.

Regarding `COc1ccc(CC2(Cc3ccc(OC)cc3)CCOC2=O)cc1`, the TGI in assay [1], in assay [2], in [3], in [4], in assay [5] and in assay [6] was over 100 µM in each case. The TGI in assay [7], in [8], in assay [9] and in assay [10] was over 100 µM in each case.

With `CCOc1cc2c(c(OCC)c1O)CC[C@@H]1[C@@H]2CC[C@]2(C)[C@@H](O)CC[C@@H]12`, the TGI was over 100 µM in assay [1]; 41.6 µM in assay [2]; 55.3 µM in assay [3]; 1.86 µM in assay [4]; over 100 µM in [5]; over 100 µM in [7]. The TGI was over 100 µM in assay [8] and 57.5 µM in assay [9].

As to `Cc1ccc(N/C(SCc2ccccc2)=C(\C(Cl)=C(Cl)Cl)[N+](=O)[O-])c(C)c1`, the TGI was 54.3 µM in assay [1]; 74.1 µM in assay [2]; 31.6 µM in assay [3]; over 100 µM in [6]; 54 µM in [7]; 32.7 µM in assay [8]. Moreover, the TGI in [11] is over 100 µM; in assay [9], over 100 µM; in [10], 29.3 µM.

As for `COC(=O)CCC(NC(=O)OC(C)(C)C)C(=O)NC(Cc1ccc(NC(=O)CCCC(C)=O)cc1)C(=O)NC(CCC(=O)OC)C(=O)OC` (centres undefined), the TGI in [1], in assay [2], in assay [3], in assay [5], in assay [6] and in assay [7] was over 100 µM each time. In addition, the TGI in assay [8], in [11] and in [9] was over 100 µM in each case.

Turning to `COc1ccc(-c2oc3c(OC)c(OC)cc(O)c3c(=O)c2OC)cc1`, the TGI in assay [1], in assay [2], in assay [3], in [4], in assay [5] and in assay [6] was over 100 µM in each case. The TGI in assay [7], in [8], in assay [9] and in assay [10] was over 100 µM in each case.

Turning to `COc1cc2c(cc1OC)[C@@H](Nc1ccc(F)cc1)C1COC(=O)[C@@H]1C2c1cc(OC)c(O)c(OC)c1` (some centres undefined), the TGI in [1] is 2.51 µM; in assay [2] it was 7.78 µM; in [3], 33.3 µM; in assay [4], 0.626 µM; in assay [5], over 100 µM; in [6] it was 2.16 µM. The TGI in assay [7] was over 85.8 µM; in assay [8] it was over 38.8 µM; in [9] it was 7 µM; in assay [10], 4.03 µM.

`CCN(CC)c1oc(N(CC)CC)c(C(=O)Nc2ccccn2)c(=O)c1C(C)=O`: the TGI in assay [1], in assay [2], in [3], in assay [5], in assay [6] and in [8] was over 100 µM in each case. In addition, the TGI in assay [9] and in [10] was over 100 µM in each case.

With `COc1ccc2nc3cc(Cl)ccc3c(SCC(=O)Nc3ccccc3-c3ccccc3NC(=O)CSc3c4ccc(Cl)cc4nc4ccc(OC)cc34)c2c1`, the TGI in [1], in assay [2], in assay [3], in assay [5], in [6] and in assay [7] was over 100 µM each time. Moreover, the TGI in assay [8], in [9] and in assay [10] was over 100 µM throughout.

As for `CC(=O)OC(C)(C)CCC(=O)[C@](C)(O)[C@H]1[C@H](O)C[C@@]2(C)[C@@H]3CCc4c(cc(OC5OC(CO)C(O)C(O)C5O)c(O)c4C)C3(C)C(=O)C[C@]12C` (some centres undefined), the TGI in assay [1], in [2], in assay [3], in assay [5], in assay [6] and in assay [7] was over 100 µM each time. In addition, the TGI in [8], in assay [11], in assay [9] and in assay [10] was over 100 µM in each case.

Regarding `O=C(NNC(=O)c1csc(NC(=S)NC2CCCCC2)n1)c1ccccc1`, the TGI in assay [1] is 31 µM; in assay [2], 76.2 µM; in assay [3] it was 20.1 µM; in assay [5] it was 17.7 µM; in [7], over 100 µM; in [8], 59.2 µM. The TGI stood at 48.9 µM in [11], 34.2 µM in assay [9] and 20.4 µM in [10].

In the case of `Cc1cnc2[nH]c(-c3ccc4ccccc4c3)cc(=O)c2c1`, the TGI in [1] was over 100 µM; in assay [3], 18.6 µM; in assay [5] it was over 100 µM; in assay [6] it was over 100 µM; in assay [7], over 100 µM; in assay [8], over 100 µM. Also, the TGI in assay [11], in assay [9] and in assay [10] was over 100 µM in each case. Also, the GI50 was 0.394 µM in [6], 0.404 µM in [11] and 0.464 µM in [10].

On to `Cc1cccc(N/C(Sc2ccccc2)=C(/C(Cl)=C(Cl)Cl)[N+](=O)[O-])c1`, for which the TGI in [1] is 32.9 µM; in assay [2], 40.6 µM; in assay [3], 29 µM; in [6] it was over 100 µM; in assay [7], 38.6 µM; in [8], 29.6 µM. The TGI in [11] was over 100 µM; in assay [9], 47.6 µM; in assay [10], 31.9 µM.

Regarding `COc1ccccc1C1c2cc3c(cc2OC(N2CCOCC2)C1C)OCO3` (centres undefined), the TGI is 42.2 µM in [1]; 81.7 µM in assay [5]; 40.7 µM in [6]; over 100 µM in assay [8]; 71.9 µM in [11].

As for `COC1=C(C)C(=O)c2c(cc3c(c2O)C(C)(CCC=C(C)C)C(C)O3)C1=O` (centres undefined), the TGI in assay [1] was over 100 µM; in assay [2], 35 µM; in assay [3], over 100 µM; in assay [4], over 100 µM; in assay [5] it was over 100 µM; in assay [6] it was 27.2 µM. The TGI in assay [7], in assay [8], in assay [9] and in [10] was over 100 µM in each case.

In the case of `CC(=O)O[C@H]1CCC2[C@@H]3CCC4c5nonc5CC[C@]4(C)C3CC[C@@]21C` (some centres undefined), the TGI is over 10 µM in assay [1]; over 10 µM in [2]; over 10 µM in assay [3]; over 100 µM in assay [4]; over 100 µM in assay [5]; over 10 µM in assay [6]. For the same molecule, the TGI in assay [7], in [8], in assay [9] and in [10] was over 10 µM each time. Besides, the GI50 in assay [4] and in [5] was over 100 µM each time.

For the molecule `N#Cc1c(-c2ccccc2)c(CN2CCCCC2)c(=O)n2c1[nH]c1ccccc12`, the TGI in assay [1] was 95.6 µM; in [2], over 100 µM; in assay [3], 64 µM; in assay [5], over 100 µM; in [6], over 100 µM; in assay [7] it was over 100 µM. For the same molecule, the TGI in [8], in assay [11], in [9] and in [10] was over 100 µM in each case.
